Laboratory results from PMC7643960 (PLoS ONE, 2020).
Several values for one entry are separate records, joined by “and”; a condition that tells them apart may be missing. Equal values may be shown once.

Key:
Type in all cases: cell-based, horse
[1] = test system: equine dermal fibroblasts PriFri2; experiment: AnnexinV-FITC/propidium iodide staining, flow cytometry
Procedure: (§1) Approximately 7.5 × 10^5 cells (MelDuWi) and 1.0 × 10^6 cells (PriFri2 and sRGO2) were seeded in 25 cm^2 cell culture flasks. […] Following 24 and 48 h of incubation, cells were harvested by mild trypsinization and washed twice with PBS buffer (containing Mg^2+ and Ca^2+). Cells (1.0 × 10^6) were resuspended in AnnexinV binding buffer (BioLegend®, San Diego, US) to a concentration of 1.0 ‧ 10^6 cells/mL. Approximately 100,000 cells were stained with propidium iodide solution ([…], 1 mg/mL) and FITC AnnexinV solution ([…], BioLegend®) for 15 min in the dark at room temperature. After the addition of Annexin V binding buffer ([…]), the suspension was analyzed using the Attune® FACS machine (Life Technologies). After gating for living cells, the data from detectors BL-1A and BL-3A were collected. A total of 20,000 events were collected from each sample and technical duplicates were measured.

EMM cells MelDuWi = experiment: as above; settings: double IC50 concentration
Procedure: as §1

ES cells sRGO2 = experiment: as above; settings: double IC50 concentration
Procedure: as §1

primary ES cells sRGO1 = experiment: crystal violet staining assay (CVS), proliferation; settings: for IC50: mean (95% CI)
Procedure: (§2) All cells used for the experiments originate from different horses. Primary EMM cells (MelDuWi) and primary equine dermal fibroblasts (PriFi1, PriFi2) belong to the cell culture stock of the Clinic for Horses, University of Veterinary Medicine Hannover, Foundation, Hannover, Germany.
(§3) The proliferation assay was performed as published. […] Control cells were treated with medium only. The proportion of cells treated relative to untreated controls was determined by crystal violet staining and photometric absorbance measurement at the incubation time points mentioned above. Proliferation assays were performed in six to eight biological replicates with two technical replicates for each combination of cell type, incubation time and compound concentration.
(§4) Technical duplicates with a coefficient of variation of more than 20% were excluded from the cell assay analysis. […] Additional statistical data analysis was conducted with R 3.5.1.. A generalized additive model was fitted for each test (MTS and CVS) and cell type comparison (primary EMM cells and fibroblasts, and primary ES cells and fibroblasts) using the ‘mgcv’ package. Compound concentrations and the duration of incubation were modeled as tensor product smooth interacting with compound and cell line. Cell passage was added as a random effect. An appropriate distribution was selected by the visual inspection of residuals. The p-values were obtained by performing a Wald test for each parameter. Statistical significance was set at 0.05.

[2] = test system: primary EMM cells MelDuWi; experiment: crystal violet staining assay (CVS), proliferation; settings: for IC50: mean (95% CI)
Procedure: as §2, §3, §4

primary EMM cells eRGO1 = experiment: crystal violet staining assay (CVS), proliferation; settings: for IC50: mean (95% CI)
Procedure: as §2, §3, §4

[3] = test system: primary equine dermal fibroblasts PriFi2; experiment: crystal violet staining assay (CVS), proliferation; settings: for IC50: mean (95% CI)
Procedure: as §2, §3, §4

primary ES cells sRGO2 = experiment: crystal violet staining assay (CVS), proliferation; settings: for IC50: mean (95% CI)
Procedure: as §2, §3, §4

[4] = test system: primary equine dermal fibroblasts PriFi1; experiment: crystal violet staining assay (CVS), proliferation; settings: for IC50: mean (95% CI)
Procedure: as §2, §3, §4

[5] = test system: equine dermal fibroblasts PriFi2; experiment: SRB assay after 96 h; settings: PriFri2, 96 h of drug exposure
Procedure: (§5) Approximately 7.5 × 10^5 cells (MelDuWi) and 1.0 × 10^6 cells (PriFri2 and sRGO2) were seeded in 25 cm^2 cell culture flasks. […] Following 24 and 48 h of incubation, the cells were harvested by mild trypsinization and washed twice with phosphate-buffered saline (PBS) buffer (containing Mg^2+ and Ca^2+). Cells (1.0 × 10^6) were fixed with ethanol (70%, -20°C, for 24 h). After discarding the ethanol, the cells were washed in 1 mL PBS buffer (containing Mg^2+ and Ca^2+) and were centrifuged. The cell pellet was resuspended in 1 mL of staining PBS buffer (containing Mg^2+ and Ca^2+, 10 μg/mL RNASe [Thermofisher] and 15 μg/mL propidium iodide [Sigma-Aldrich, Munich, Germany]) and was incubated for 30 min at room temperature. Analyses were performed using the Attune® FACS machine (Life Technologies, Darmstadt, Germany) collecting data from the BL-2A channel. Doublet cells were excluded from the measurements by plotting BL-2A against BL-2H. A total of 20,000 events were collected for each cell cycle distribution. Each sample was measured in duplicate.
(§6) S1 Appendix. IC50 values measured by SRB Assay after 96 h. […] Measurements were carried out at least as thrice determination.

[6] = test system: equine sarcoid [ES] cells sRGO2; experiment: SRB assay after 96 h; settings: sRGO2, 96 h of drug exposure
Procedure: as §5, §6

[7] = test system: equine malignant melanoma [EMM] cells MelDuWi; experiment: SRB assay after 96 h; settings: 96 h of drug exposure
Procedure: as §5, §6

[8] = PriFri2, 24 h, double IC50 concentration
[9] = PriFri2, 48 h, double IC50 concentration
[10] = equine dermal fibroblasts, 24 h, versus control

C=C(C)[C@@H]1CC[C@]2(COS(N)(=O)=O)CC[C@]3(C)[C@H](CC[C@@H]4[C@@]5(C)CC[C@H](OS(N)(=O)=O)C(C)(C)[C@@H]5CC[C@]43C)[C@@H]12 [BBS, (3β)-Lup-20(29)-ene-3,28-diol, 3,28-disulfamate]
AnnexinV staining: Living cells [1, 8]: 68,0%
AnnexinV staining: early apop [1, 8]: 8,0%
AnnexinV staining: late apop [1, 8]: 22,4%
AnnexinV staining: necrotic [1, 8]: 1,6%
AnnexinV staining: Living cells [1, 9]: 33,1%
AnnexinV staining: early apop [1, 9]: 9,3%
AnnexinV staining: late apop [1, 9]: 54% and 53.6%
AnnexinV staining: necrotic [1, 9]: 4,1%
increase of early apoptotic cells [1, 10]: 5%
increase of late apoptotic cells [1, 10]: 3%
AnnexinV staining: Living cells (EMM cells MelDuWi; 24 h): 77,8%
AnnexinV staining: early apop (EMM cells MelDuWi; 24 h): 6,3%
AnnexinV staining: late apop (EMM cells MelDuWi; 24 h): 15,4%
AnnexinV staining: necrotic (EMM cells MelDuWi; 24 h): 0,6%
AnnexinV staining: Living cells (EMM cells MelDuWi; 48 h): 60,6%
AnnexinV staining: early apop (EMM cells MelDuWi; 48 h): 7,5%
AnnexinV staining: late apop (EMM cells MelDuWi; 48 h): 28.2%
AnnexinV staining: necrotic (EMM cells MelDuWi; 48 h): 3,7%
AnnexinV staining: Living cells (ES cells sRGO2; sRGO2, 24 h): 41,1%
AnnexinV staining: early apop (ES cells sRGO2; sRGO2, 24 h): 19,1%
AnnexinV staining: late apop (ES cells sRGO2; sRGO2, 24 h): 38,5%
AnnexinV staining: necrotic (ES cells sRGO2; sRGO2, 24 h): 1,3%
AnnexinV staining: Living cells (ES cells sRGO2; sRGO2, 48 h): 8,7%
AnnexinV staining: apoptotic cells (early and late) (ES cells sRGO2; sRGO2, 48 h): approximately 90%
AnnexinV staining: early apop (ES cells sRGO2; sRGO2, 48 h): 7,5%
AnnexinV staining: late apop (ES cells sRGO2; sRGO2, 48 h): 82% and 82.1%
AnnexinV staining: necrotic (ES cells sRGO2; sRGO2, 48 h): 1,8%
IC50 (primary ES cells sRGO1; sRGO1, 5 h): > 100 µM
IC50 (primary ES cells sRGO1; sRGO1, 24 h): 40 µM
IC50 (primary ES cells sRGO1; sRGO1, 48 h): 23 µM
IC50 ([2]; 5 h): > 100 µM
IC50 ([2]; 24 h): 50 µM
IC50 ([2]; 48 h): 36 µM
IC50 ([2]; 96 h): 16 µM
IC50 (primary EMM cells eRGO1; eRGO1, 5 h): > 100 µM
IC50 (primary EMM cells eRGO1; eRGO1, 24 h): 42 µM
IC50 (primary EMM cells eRGO1; eRGO1, 48 h): 25 µM
IC50 (primary EMM cells eRGO1; eRGO1, 96 h): 15 µM
IC50 ([3]; PriFi2, 5 h): > 100 µM
IC50 ([3]; PriFi2, 24 h): 62 µM
IC50 ([3]; PriFi2, 48 h): 39 µM
IC50 ([3]; PriFi2, 96 h): 16 µM
IC50 (primary ES cells sRGO2; sRGO2, 5 h): > 100 µM
IC50 (primary ES cells sRGO2; sRGO2, 24 h): 38 µM
IC50 (primary ES cells sRGO2; sRGO2, 48 h): 29 µM
IC50 ([4]; PriFi1, 5 h): > 100 µM
IC50 ([4]; PriFi1, 24 h): 52 µM
IC50 ([4]; PriFi1, 48 h): 42 µM
IC50 ([4]; PriFi1, 96 h): 17 µM
IC50 [5]: 19.6 µM
IC50 [6]: 24.3 µM
IC50 [7]: 14.9 µM

C=C(C)[C@@H]1CC[C@]2(C(=O)OCC(N)(CO)CO)CC[C@]3(C)[C@H](CC[C@@H]4[C@@]5(C)CC[C@H](OC(C)=O)C(C)(C)[C@@H]5CC[C@]43C)[C@@H]12 [NVX-207, 3-acetyl-betulinic acid-2-amino-3-hydroxy-2-hydroxymethyl-propanoate]
AnnexinV staining: apoptotic cells ([1]; PriFi2, 48 h, double IC50 concentration): about 85%
AnnexinV staining: Living cells [1, 8]: 50,0%
AnnexinV staining: early apop [1, 8]: 10,2%
AnnexinV staining: late apop [1, 8]: 37,6%
AnnexinV staining: necrotic [1, 8]: 2,2%
AnnexinV staining: Living cells [1, 9]: 12,3%
AnnexinV staining: early apop [1, 9]: 17,9%
AnnexinV staining: late apop [1, 9]: 67,1%
AnnexinV staining: Living cells (EMM cells MelDuWi; 24 h): 48,9%
AnnexinV staining: early apop (EMM cells MelDuWi; 24 h): 20,0%
AnnexinV staining: late apop (EMM cells MelDuWi; 24 h): 30,8%
AnnexinV staining: necrotic (EMM cells MelDuWi; 24 h): 0,3%
AnnexinV staining: Living cells (EMM cells MelDuWi; 48 h): 29,8%
AnnexinV staining: early apop (EMM cells MelDuWi; 48 h): 24,3%
AnnexinV staining: late apop (EMM cells MelDuWi; 48 h): 45% and 44.8%
AnnexinV staining: Living cells (ES cells sRGO2; sRGO2, 24 h): 76,6%
AnnexinV staining: early apop (ES cells sRGO2; sRGO2, 24 h): 3,7%
AnnexinV staining: late apop (ES cells sRGO2; sRGO2, 24 h): 19,1%
AnnexinV staining: necrotic (ES cells sRGO2; sRGO2, 24 h): 0,5%
AnnexinV staining: Living cells (ES cells sRGO2; sRGO2, 48 h): 38,5%
AnnexinV staining: apoptotic cells (early and late) (ES cells sRGO2; sRGO2, 48 h): about 60%
AnnexinV staining: early apop (ES cells sRGO2; sRGO2, 48 h): 12,5%
AnnexinV staining: late apop (ES cells sRGO2; sRGO2, 48 h): 47,9%
IC50 (primary ES cells sRGO1; sRGO1, 5 h): 7 µM
IC50 (primary ES cells sRGO1; sRGO1, 24 h): 7 µM
IC50 (primary ES cells sRGO1; sRGO1, 48 h): < 1 µM
NVX-207 exceeded BBSs' antiproliferative effects (primary ES cells sRGO1; sRGO1, after 48 h, CVS): about 23 times
IC50 ([2]; 5 h): 20 µM
IC50 ([2]; 24 h): 16 µM
IC50 ([2]; 48 h): 12 µM
IC50 ([2]; 96 h): 4 µM
NVX-207 exceeded BBSs' antiproliferative effects ([2]; after 48 h, CVS): ~3 times
IC50 (primary EMM cells eRGO1; eRGO1, 5 h): 10 µM
IC50 (primary EMM cells eRGO1; eRGO1, 24 h): 5 µM
IC50 (primary EMM cells eRGO1; eRGO1, 48 h): < 1 µM
IC50 (primary EMM cells eRGO1; eRGO1, 96 h): < 1 µM
NVX-207 exceeded BBSs' antiproliferative effects (primary EMM cells eRGO1; eRGO1, after 48 h, CVS): about 25 times
IC50 ([3]; PriFi2, 5 h): 14 µM
IC50 ([3]; PriFi2, 24 h): 8 µM
IC50 ([3]; PriFi2, 48 h): 7 µM
IC50 ([3]; PriFi2, 96 h): < 1 µM
NVX-207 exceeded BBSs' antiproliferative effects ([3]; PriFi2, after 48 h, CVS): ~6 times
IC50 (primary ES cells sRGO2; sRGO2, 5 h): 6 µM
IC50 (primary ES cells sRGO2; sRGO2, 24 h): < 1 µM
IC50 (primary ES cells sRGO2; sRGO2, 48 h): < 1 µM
NVX-207 exceeded BBSs' antiproliferative effects (primary ES cells sRGO2; sRGO2, after 48 h, CVS): ~29 times
IC50 ([4]; PriFi1, 5 h): 11 µM
IC50 ([4]; PriFi1, 24 h): 4 µM
IC50 ([4]; PriFi1, 48 h): 2 µM
IC50 ([4]; PriFi1, 96 h): < 1 µM
NVX-207 exceeded BBSs' antiproliferative effects ([4]; PriFi1, after 48 h, CVS): about 23 times
IC50 [5]: 3.8 µM
IC50 [6]: 3.1 µM
IC50 [7]: 3.7 µM
